Laboratory results from the NIST ThermoML archive (doi:10.1016/j.jct.2012.03.003).

Test: xn = mol fraction of the nth substance listed
Settings: Liquid, Vibrating tube method

COc1cc2c(cc1O)CC1c3c(cc(O)c(OC)c3-2)CCN1C (stereo not given) [boldine] + CCO
Settings | mass density [kg/m3]
362.77 K, 3000 kPa, x1 = 0.0267 | 785.37
362.77 K, 4000 kPa, x1 = 0.0136 | 759.44
362.77 K, 4000 kPa, x1 = 0.0267 | 786.53
362.77 K, 5000 kPa, x1 = 0.0136 | 760.66
362.77 K, 5000 kPa, x1 = 0.0267 | 787.67
362.77 K, 6000 kPa, x1 = 0.0136 | 761.86
362.77 K, 6000 kPa, x1 = 0.0267 | 788.81
362.77 K, 7000 kPa, x1 = 0.0136 | 763.05
362.77 K, 7000 kPa, x1 = 0.0267 | 789.94
362.77 K, 8000 kPa, x1 = 0.0136 | 764.22
362.77 K, 8000 kPa, x1 = 0.0267 | 791.05
362.77 K, 9000 kPa, x1 = 0.0136 | 765.39
362.77 K, 9000 kPa, x1 = 0.0267 | 792.16
362.77 K, 10000 kPa, x1 = 0.0136 | 766.54
362.77 K, 10000 kPa, x1 = 0.0267 | 793.25
362.77 K, 11000 kPa, x1 = 0.0136 | 767.67
362.77 K, 11000 kPa, x1 = 0.0267 | 794.34
362.77 K, 12000 kPa, x1 = 0.0136 | 768.79
362.77 K, 12000 kPa, x1 = 0.0267 | 795.38
362.77 K, 13000 kPa, x1 = 0.0136 | 769.9
362.77 K, 13000 kPa, x1 = 0.0267 | 796.43
362.77 K, 14000 kPa, x1 = 0.0136 | 770.98
362.77 K, 14000 kPa, x1 = 0.0267 | 797.48
362.77 K, 15000 kPa, x1 = 0.0136 | 772.08
362.77 K, 15000 kPa, x1 = 0.0267 | 798.5
362.77 K, 16000 kPa, x1 = 0.0136 | 773.14
362.77 K, 16000 kPa, x1 = 0.0267 | 799.5
362.77 K, 17000 kPa, x1 = 0.0136 | 774.19
362.77 K, 17000 kPa, x1 = 0.0267 | 800.5
362.77 K, 18000 kPa, x1 = 0.0136 | 775.2
362.77 K, 18000 kPa, x1 = 0.0267 | 801.48
362.77 K, 19000 kPa, x1 = 0.0136 | 776.22
362.77 K, 19000 kPa, x1 = 0.0267 | 802.44
362.77 K, 20000 kPa, x1 = 0.0136 | 777.21
362.77 K, 20000 kPa, x1 = 0.0267 | 803.41
362.78 K, 1000 kPa, x1 = 0.0012 | 728.71
362.78 K, 2000 kPa, x1 = 0.0012 | 730.01
362.78 K, 3000 kPa, x1 = 0.0012 | 731.31
362.78 K, 4000 kPa, x1 = 0.0012 | 732.6
362.78 K, 5000 kPa, x1 = 0.0012 | 733.87
362.78 K, 6000 kPa, x1 = 0.0012 | 735.12
362.78 K, 7000 kPa, x1 = 0.0012 | 736.36
362.78 K, 8000 kPa, x1 = 0.0012 | 737.59
362.78 K, 9000 kPa, x1 = 0.0012 | 738.8
362.78 K, 10000 kPa, x1 = 0.0012 | 739.99
362.78 K, 11000 kPa, x1 = 0.0012 | 741.18
362.78 K, 12000 kPa, x1 = 0.0012 | 742.33
362.78 K, 13000 kPa, x1 = 0.0012 | 743.48
362.78 K, 14000 kPa, x1 = 0.0012 | 744.62
362.78 K, 15000 kPa, x1 = 0.0012 | 745.73
362.78 K, 16000 kPa, x1 = 0.0012 | 746.83
362.78 K, 17000 kPa, x1 = 0.0012 | 747.9
362.78 K, 18000 kPa, x1 = 0.0012 | 748.97
362.78 K, 19000 kPa, x1 = 0.0012 | 750.01
362.78 K, 20000 kPa, x1 = 0.0012 | 751.05
362.87 K, 1000 kPa, x1 = 0.0074 | 741.96
362.87 K, 2000 kPa, x1 = 0.0074 | 743.24
362.87 K, 3000 kPa, x1 = 0.0074 | 744.5
362.87 K, 4000 kPa, x1 = 0.0074 | 745.75
362.87 K, 5000 kPa, x1 = 0.0074 | 746.98
362.87 K, 6000 kPa, x1 = 0.0074 | 748.21
362.87 K, 7000 kPa, x1 = 0.0074 | 749.43
362.87 K, 8000 kPa, x1 = 0.0074 | 750.63
362.87 K, 9000 kPa, x1 = 0.0074 | 751.81
362.87 K, 10000 kPa, x1 = 0.0074 | 752.98
362.87 K, 11000 kPa, x1 = 0.0074 | 754.12
362.87 K, 12000 kPa, x1 = 0.0074 | 755.27
362.87 K, 13000 kPa, x1 = 0.0074 | 756.39
362.87 K, 14000 kPa, x1 = 0.0074 | 757.5
362.87 K, 15000 kPa, x1 = 0.0074 | 758.59
362.87 K, 16000 kPa, x1 = 0.0074 | 759.65
362.87 K, 17000 kPa, x1 = 0.0074 | 760.72
362.87 K, 18000 kPa, x1 = 0.0074 | 761.76
362.87 K, 19000 kPa, x1 = 0.0074 | 762.79
362.87 K, 20000 kPa, x1 = 0.0074 | 763.81
